In ChEMBL document CHEMBL5055630, “Design, synthesis and biological evaluation of indole-based [1,2,4]triazolo[4,3-a] pyridine derivatives as novel microtubule polymerization inhibitors” (Eur J Med Chem, 2021):

Columns and labels:
[1] = system: MCF7; assay: Antiproliferative activity against human MCF7 assessed as reduction in cell viability measured after 48 hrs by MTT assay; type: functional, cell-based; conditions: MCF7, 48 h
[2] = system: HeLa; assay: Antiproliferative activity against human HeLa assessed as reduction in cell viability measured after 48 hrs by MTT assay; type: functional, cell-based
[3] = system: HCT-116; assay: Antiproliferative activity against human HCT-116 assessed as reduction in cell viability measured after 48 hrs by MTT assay; type: functional, cell-based; conditions: HCT-116, 48 h
[4] = system: A549; assay: Antiproliferative activity against human A549 assessed as reduction in cell viability measured after 48 hrs by MTT assay; type: functional, cell-based; conditions: A549, 48 h
[5] = Metabolic stability in human liver microsomes assessed as parent compound remaining measured immediately after compound addition; type: ADME, Microsome; conditions: read-out: Stability
[6] = Metabolic stability in human liver microsomes assessed as parent compound remaining after 60 mins; type: ADME, Microsome; conditions: read-out: Stability
[7] = Metabolic stability in human liver microsomes assessed as half life; type: ADME, Microsome
[8] = Metabolic stability in human liver microsomes assessed as parent compound remaining after 30 mins; type: ADME, Microsome; conditions: read-out: Stability
[9] = Metabolic stability in human liver microsomes assessed as parent compound remaining after 90 mins; type: ADME, Microsome; conditions: read-out: Stability
[10] = Metabolic stability in human liver microsomes assessed as parent compound remaining after 15 mins; type: ADME, Microsome; conditions: read-out: Stability
[11] = system: HeLa; assay: Induction of apoptosis in human HeLa cells assessed as viable cells at 5 nM incubated for 48 hrs by Annexin V and propidium iodide Staining based assay (reference value: 98.5 %); type: functional; conditions: read-out: Activity
[12] = system: HeLa; assay: Induction of apoptosis in human HeLa cells assessed as late apoptotic cells at 5 nM incubated for 48 hrs by Annexin V and propidium iodide Staining based assay (reference value: 1 %); type: functional
[13] = system: HeLa; assay: Induction of apoptosis in human HeLa cells assessed as necrotic cells at 5 nM incubated for 48 hrs by Annexin V and propidium iodide Staining based assay (reference value: 0.4%); type: functional
[14] = system: HeLa; assay: Induction of apoptosis in human HeLa cells assessed as early apoptotic cells at 5 nM incubated for 48 hrs by Annexin V and propidium iodide Staining based assay (reference value: 0.2%); type: functional

CCCN1CC(Oc2cc(-c3ccc4c(ccn4C)c3)cn3c(-c4cc(OC)c(OC)c(OC)c4)nnc23)C1
IC50 [1]: 378 nM
IC50 [2]: 211 nM
IC50 [3]: 675 nM
IC50 [4]: 234 nM

CCOc1cc(-c2ccc3[nH]ccc3c2)cn2c(-c3cc(OC)c(OC)c(OC)c3)nnc12
IC50 [1]: 284 nM
IC50 [2]: 166 nM
IC50 [3]: 374 nM
IC50 [4]: 589 nM

COc1cc(-c2nnc3c(OC4CN(C(C)(C)C)C4)cc(-c4ccc5[nH]ccc5c4)cn23)cc(OC)c1OC
IC50 [1]: > 10000 nM
IC50 [2]: > 10000 nM
IC50 [3]: > 10000 nM
IC50 [4]: > 10000 nM

COc1cc(-c2nnc3c(OCC(F)(F)F)cc(-c4ccc5[nH]ccc5c4)cn23)cc(OC)c1OC
IC50 [1]: 608 nM
IC50 [2]: 348 nM
IC50 [3]: 900 nM
IC50 [4]: 585 nM

COc1ccc(/C=C/C=C\c2cc(OC)c(OC)c(OC)c2)cc1O
remaining at 0 min [5]: 100%
remaining at 1 h [6]: 12.5%
IC50 [1]: 75 nM
half-life [7]: 26.7 min
IC50 [2]: 62 nM
remaining at 0.5 h [8]: 26.3%
remaining at 1.5 h [9]: 9.2%
IC50 [3]: 42.3 nM
IC50 [4]: 118 nM
remaining at 0.25 h [10]: 47.7%

COc1cc(-c2cc(OC)c3nnc(-c4ccc5[nH]ccc5c4)n3c2)cc(OC)c1OC
IC50 [1]: > 10000 nM
IC50 [2]: > 10000 nM
IC50 [3]: > 10000 nM
IC50 [4]: > 10000 nM

COc1cc(-c2nnc3c(OC4CCC4)cc(-c4ccc5c(ccn5C)c4)cn23)cc(OC)c1OC
IC50 [1]: 125 nM
IC50 [2]: 177 nM
IC50 [3]: 750 nM
IC50 [4]: 176 nM

CCOc1cc(-c2ccc3c(ccn3C)c2)cn2c(-c3cc(OC)c(OC)c(OC)c3)nnc12
IC50 [1]: 140 nM
IC50 [2]: 210 nM
IC50 [3]: 228 nM
IC50 [4]: 334 nM

CCOc1cc(-c2ccc3c(c2)c2ccccc2n3C)cn2c(-c3cc(OC)c(OC)c(OC)c3)nnc12
IC50 [1]: 303 nM
IC50 [2]: 350 nM
IC50 [3]: 386 nM
IC50 [4]: 901 nM

COc1cc(-c2nnc3c(OC4CC4)cc(-c4ccc5[nH]ccc5c4)cn23)cc(OC)c1OC
IC50 [1]: 259 nM
IC50 [2]: 119 nM
IC50 [3]: 275 nM
IC50 [4]: 198 nM

COc1cc(-c2nnc3c(OC4COC4)cc(-c4ccc5c(ccn5C)c4)cn23)cc(OC)c1OC
IC50 [1]: 1900 nM
IC50 [2]: 214 nM
IC50 [3]: 1290 nM
IC50 [4]: 516 nM

COc1cc(-c2nnc3c(OC)cc(-c4ccc5c(c4)c(C=O)cn5C)cn23)cc(OC)c1OC
IC50 [1]: 1120 nM
IC50 [2]: 820 nM
IC50 [3]: 1800 nM
IC50 [4]: 3080 nM

COc1cc2c(c(OC)c1OC)-c1ccc(OC)c(=O)cc1[C@@H](NC(C)=O)CC2 [COLCHICINE]
IC50 [1]: 48 nM
IC50 [2]: 103 nM
IC50 [3]: 83 nM
IC50 [4]: 111 nM

CCOc1cc(-c2ccc3cc[nH]c3c2)cn2c(-c3cc(OC)c(OC)c(OC)c3)nnc12
IC50 [1]: 334 nM
IC50 [2]: 272 nM
IC50 [3]: 1340 nM
IC50 [4]: 626 nM

COc1cc(-c2nnc3c(OC)cc(-c4ccc5[nH]ccc5c4)cn23)cc(OC)c1OC
IC50 [1]: 80 nM
IC50 [2]: 85 nM
IC50 [3]: 108 nM
IC50 [4]: 167 nM

CCOc1cc(-c2ccc3ccn(C)c3c2)cn2c(-c3cc(OC)c(OC)c(OC)c3)nnc12
IC50 [1]: 239 nM
IC50 [2]: 240 nM
IC50 [3]: 291 nM
IC50 [4]: 349 nM

COc1cc(-c2nnc3c(OC(C)C)cc(-c4ccc5[nH]ccc5c4)cn23)cc(OC)c1OC
IC50 [1]: 1020 nM
IC50 [2]: 261 nM
IC50 [3]: 939 nM
IC50 [4]: 1250 nM

CC(=O)O[C@H]1C(=O)[C@@]2(C)[C@H]([C@H](OC(=O)c3ccccc3)[C@]3(O)C[C@H](OC(=O)[C@H](O)[C@@H](NC(=O)c4ccccc4)c4ccccc4)C(C)=C1C3(C)C)[C@]1(OC(C)=O)CO[C@@H]1C[C@@H]2O [PACLITAXEL]
IC50 [2]: 8 nM
IC50 [3]: 21 nM
IC50 [4]: 15 nM

COc1cc(-c2nnc3c(OC4CCC4)cc(-c4ccc5[nH]ccc5c4)cn23)cc(OC)c1OC
IC50 [1]: 267 nM
IC50 [2]: 142 nM
IC50 [3]: 694 nM
IC50 [4]: 232 nM

COc1cc(-c2nnc3c(OC4CC4)cc(-c4ccc5c(ccn5C)c4)cn23)cc(OC)c1OC
IC50 [1]: 118 nM
IC50 [2]: 97 nM
IC50 [3]: 135 nM
IC50 [4]: 168 nM

C=C(c1cc(OC)c(OC)c(OC)c1)c1ccc2c(c1)c1ccccc1n2C
IC50 [1]: 5490 nM
IC50 [2]: 3970 nM
IC50 [3]: 1540 nM
IC50 [4]: 478 nM

COc1ccc(/C=C\c2cc(OC)c(OC)c(OC)c2)cc1O [COMBRETASTATIN A4]
viability at 0.005 µM [11]: 6.7%
Activity [12]: 52.2%
remaining at 0 min [5]: 100%
Activity [13]: 2.6%
remaining at 1 h [6]: 26.1%
IC50 [1]: 10 nM
Activity [14]: 38.6%
half-life [7]: 32.5 min
remaining at 0.5 h [8]: 54.1%
remaining at 1.5 h [9]: 15.4%
IC50 [4]: 15 nM
remaining at 0.25 h [10]: 75.6%

COc1cc(-c2nnc3c(OCC(F)(F)F)cc(-c4ccc5c(ccn5C)c4)cn23)cc(OC)c1OC
IC50 [1]: 382 nM
IC50 [2]: 199 nM
IC50 [3]: 483 nM
IC50 [4]: 614 nM

CCOc1cc(-c2ccc3[nH]c4ccccc4c3c2)cn2c(-c3cc(OC)c(OC)c(OC)c3)nnc12
IC50 [1]: 295 nM
IC50 [2]: 472 nM
IC50 [3]: 2420 nM
IC50 [4]: 922 nM

COc1cc(-c2nnc3c(OC(C)C)cc(-c4ccc5c(ccn5C)c4)cn23)cc(OC)c1OC
IC50 [1]: 204 nM
IC50 [2]: 503 nM
IC50 [3]: 402 nM
IC50 [4]: 322 nM

COc1cc(-c2cc(OC)c3nnc(-c4ccc5c(ccn5C)c4)n3c2)cc(OC)c1OC
IC50 [1]: > 10000 nM
IC50 [2]: > 10000 nM
IC50 [3]: > 10000 nM
IC50 [4]: > 10000 nM

COc1cc(-c2nnc3c(OC4COC4)cc(-c4ccc5[nH]ccc5c4)cn23)cc(OC)c1OC
IC50 [1]: 2470 nM
IC50 [2]: 2780 nM
IC50 [3]: 5370 nM
IC50 [4]: 9810 nM

COc1cc(-c2nnc3c(OC)cc(-c4ccc5[nH]cc(C=O)c5c4)cn23)cc(OC)c1OC
IC50 [1]: > 10000 nM
IC50 [2]: > 10000 nM
IC50 [3]: > 10000 nM
IC50 [4]: > 10000 nM
